Experimental findings from ChEMBL document CHEMBL1155968, “Synthesis, anticonvulsant and CNS depressant activity of some new bioactive 1-(4-substituted-phenyl)-3-(4-oxo-2-phenyl/ethyl-4H-quinazolin-3-yl)-urea” (Eur J Med Chem, 2009) are described below.

The test system of data set [1] is Mus musculus. Briefly: Neurotoxicity in ip dosed albino mouse assessed as minimal motor impairment after 0.5 hrs by rotarod test. The following applies: in vivo. The format is toxicity, organism-based.
The test system of data set [2] is Mus musculus. As to the kind of experiment: Behavioral activity in albino mouse assessed as decrease in locomotor activity at 100 mg/kg, ip by actophotometer. The format is functional. The following applies: route intraperitoneal.
Data set [3] has as its system Mus musculus. Briefly: Anticonvulsant activity in ip dosed albino mouse assessed as inhibition of maximal electric shock-induced seizures after 4 hrs. The format is functional.
The subject of data set [4] is Mus musculus. Briefly: Anticonvulsant activity in ip dosed albino mouse assessed as inhibition of subcutaneous pentylenetetrazole-induced seizure after 4 hrs. The format is functional.
Data set [5] relates to Mus musculus. As to the kind of experiment: Anticonvulsant activity in ip dosed albino mouse assessed as inhibition of subcutaneous pentylenetetrazole-induced seizure after 0.5 hrs. Format: functional.
Data set [6] deals with Mus musculus. Briefly: Anticonvulsant activity in ip dosed albino mouse assessed as inhibition of maximal electric shock-induced seizures after 0.5 hrs. Format: functional.
The next data set concerns Rattus norvegicus. As to the kind of experiment: Antidepressant activity in Wistar rat assessed as increase in immobility time at 100 mg/kg, ip after 60 min by forced swim pool method. The format is functional. The conditions noted are these: route intraperitoneal.
Data set [7] relates to Mus musculus. Briefly: Neurotoxicity in ip dosed albino mouse assessed as minimal motor impairment after 4 hrs by rotarod test. The format is toxicity, organism-based. The conditions noted are these: in vivo. Background: In the rotarod test animals must keep their balance on a rotating rod.

Each structure is given as a SMILES string. Activity calls are given as the source filed them. No cut-off for these calls is given here.

`CCc1nc2ccccc2c(=O)n1NC(=O)Nc1ccc(C)cc1`: the Activity is 300 mg/kg in the data set with Mus musculus [1], 300 mg/kg in the data set on Mus musculus [3], 100 mg/kg in the data set on Mus musculus [6] and “Not Active” with Mus musculus [7]. The inhibition in vivo (usually the drop in the measured response relative to a control, in per cent) at 100 mg/kg in the data set on Mus musculus [2] came to 55%. Also, the outcome in the data set with Mus musculus [4] and in the data set on Mus musculus [5] was inactive. Moreover, the Time in the data set with Rattus norvegicus is 243.42 s.

Take `O=C(Nc1ccc(Cl)cc1)Nn1c(-c2ccccc2)nc2ccccc2c1=O`: the Activity in the data set with Mus musculus [1] is 300 mg/kg; in the data set on Mus musculus [5], 300 mg/kg; in the data set with Mus musculus [6], 300 mg/kg; in the data set on Mus musculus [7] it was “Not Active”. In the data set on Mus musculus [2], the inhibition in vivo at 100 mg/kg was 55%. The result in the data set with Mus musculus [3] and with Mus musculus [4] was inactive. Moreover, the Time in the data set on Rattus norvegicus stood at 218.5 s.

With `CCc1nc2ccccc2c(=O)n1NC(=O)Nc1ccc(Br)cc1`, the Activity in the data set on Mus musculus [1] was 300 mg/kg; with Mus musculus [7] it was “Not Active”. Also, in the data set with Mus musculus [2], the inhibition in vivo at 100 mg/kg came out at 54%. The outcome in the data set with Mus musculus [3] and in the data set on Mus musculus [6] was inactive. In addition, the Time in the data set with Rattus norvegicus came out at 222.2 s.

As for `CCc1nc2ccccc2c(=O)n1NC(=O)Nc1ccc(F)cc1`, the Activity entry in the data set on Mus musculus [1] and in the data set on Mus musculus [7] was “Not Active” throughout. In addition, the inhibition in vivo at 100 mg/kg with Mus musculus [2] was determined as 51%. In addition, the outcome in the data set with Mus musculus [3], in the data set with Mus musculus [4], with Mus musculus [5] and with Mus musculus [6] was inactive. Besides, the Time in the data set on Rattus norvegicus is recorded as 248.32 s.

On to `Cc1cccc(NC(=O)Nn2c(-c3ccccc3)nc3ccccc3c2=O)c1`, for which the Activity result in the data set with Mus musculus [1] and in the data set with Mus musculus [7] was “Not Active” in each case. Moreover, the inhibition in vivo at 100 mg/kg with Mus musculus [2] is 59%. In addition, the result in the data set on Mus musculus [3], with Mus musculus [4], with Mus musculus [5] and in the data set on Mus musculus [6] was inactive. The Time in the data set with Rattus norvegicus came to 171.24 s.

For `CCc1ccc(NC(=O)Nn2c(CC)nc3ccccc3c2=O)cc1`, the Activity result in the data set on Mus musculus [1] and in the data set on Mus musculus [7] was “Not Active” throughout. Also, the inhibition in vivo at 100 mg/kg in the data set with Mus musculus [2] came out at 58%. Further, the outcome with Mus musculus [3], in the data set with Mus musculus [4], in the data set on Mus musculus [5] and in the data set on Mus musculus [6] was inactive. The Time with Rattus norvegicus was 227.54 s.

As for `CCC1(c2ccccc2)C(=O)NC(=O)NC1=O` [PHENOBARBITAL], the Activity result was “Not Active” with Mus musculus [1], 300 mg/kg in the data set on Mus musculus [5] and “Not Active” in the data set with Mus musculus [7]. The outcome in the data set on Mus musculus [3], in the data set on Mus musculus [4] and in the data set with Mus musculus [6] was inactive.

As to `CCc1nc2ccccc2c(=O)n1NC(=O)Nc1ccc([N+](=O)[O-])cc1`, the Activity is 100 mg/kg in the data set on Mus musculus [1], 300 mg/kg with Mus musculus [6] and “Not Active” with Mus musculus [7]. The inhibition in vivo at 100 mg/kg in the data set on Mus musculus [2] was found to be 41%. In addition, the result with Mus musculus [3], in the data set with Mus musculus [4] and with Mus musculus [5] was inactive. In addition, the Time with Rattus norvegicus stood at 212.72 s.

For the compound `O=C(Nc1ccc(F)cc1)Nn1c(-c2ccccc2)nc2ccccc2c1=O`, the Activity result with Mus musculus [1] and with Mus musculus [7] was “Not Active” in each case. For the same compound, in the data set with Mus musculus [2], the inhibition in vivo at 100 mg/kg turned out to be 54%. Besides, the result in the data set with Mus musculus [3], with Mus musculus [4], in the data set with Mus musculus [5] and in the data set on Mus musculus [6] was inactive. The Time in the data set on Rattus norvegicus was found to be 211.14 s.

As to `Cc1ccc(NC(=O)Nn2c(-c3ccccc3)nc3ccccc3c2=O)cc1`, the Activity in the data set on Mus musculus [1] is 300 mg/kg; in the data set with Mus musculus [7], “Not Active”. In the data set on Mus musculus [2], the inhibition in vivo at 100 mg/kg came out at 54%. The result with Mus musculus [3], in the data set with Mus musculus [4], in the data set with Mus musculus [5] and in the data set with Mus musculus [6] was inactive. Further, the Time in the data set on Rattus norvegicus is listed as 205.22 s.

For `O=C1NC(=O)C(c2ccccc2)(c2ccccc2)N1` [PHENYTOIN], the Activity in the data set with Mus musculus [1] was determined as 100 mg/kg; in the data set with Mus musculus [3], 100 mg/kg; in the data set on Mus musculus [4], 300 mg/kg; in the data set with Mus musculus [5] it was 100 mg/kg; with Mus musculus [6] it was 30 mg/kg; in the data set on Mus musculus [7], 300 mg/kg. Further, the inhibition in vivo at 100 mg/kg with Mus musculus [2] was found to be 69%.

`CCc1nc2ccccc2c(=O)n1NC(=O)Nc1ccc(Cl)cc1`: the Activity result with Mus musculus [1] was “Not Active”. Further, the inhibition in vivo at 100 mg/kg in the data set with Mus musculus [2] amounted to 52%. Besides, the outcome in the data set on Mus musculus [3], with Mus musculus [4], in the data set on Mus musculus [5] and with Mus musculus [6] was inactive. Also, the Time with Rattus norvegicus was 180.3 s.

With `O=C(Nc1ccc(Br)cc1)Nn1c(-c2ccccc2)nc2ccccc2c1=O`, the Activity in the data set on Mus musculus [1] is 300 mg/kg; in the data set on Mus musculus [3] it was 300 mg/kg; with Mus musculus [5] it was 300 mg/kg; in the data set with Mus musculus [6] it was 100 mg/kg; with Mus musculus [7], “Not Active”. The inhibition in vivo at 100 mg/kg in the data set on Mus musculus [2] was 58%. Besides, the outcome with Mus musculus [4] was inactive. Also, the Time in the data set on Rattus norvegicus is on record as 228.53 s.

Take `Cc1ccccc1NC(=O)Nn1c(-c2ccccc2)nc2ccccc2c1=O`: the Activity entry with Mus musculus [1] and with Mus musculus [7] was “Not Active” each time. For the same compound, in the data set on Mus musculus [2], the inhibition in vivo at 100 mg/kg is 59%. Also, the result with Mus musculus [3], in the data set with Mus musculus [4], with Mus musculus [5] and with Mus musculus [6] was inactive. Moreover, the Time in the data set with Rattus norvegicus turned out to be 162.13 s.

Turning to `O=C(Nc1ccc([N+](=O)[O-])cc1)Nn1c(-c2ccccc2)nc2ccccc2c1=O`, the Activity with Mus musculus [1] is 300 mg/kg; in the data set with Mus musculus [5], 300 mg/kg; in the data set on Mus musculus [6], 300 mg/kg; in the data set with Mus musculus [7], “Not Active”. In addition, in the data set on Mus musculus [2], the inhibition in vivo at 100 mg/kg is 42%. The outcome with Mus musculus [3] and in the data set on Mus musculus [4] was inactive. In the data set with Rattus norvegicus, the Time turned out to be 199.19 s.

Take `CCc1nc2ccccc2c(=O)n1NC(=O)Nc1ccccc1C`: the Activity result in the data set with Mus musculus [1] and in the data set on Mus musculus [7] was “Not Active” each time. Also, in the data set on Mus musculus [2], the inhibition in vivo at 100 mg/kg was determined as 54%. Besides, the result in the data set with Mus musculus [3], with Mus musculus [4], in the data set on Mus musculus [5] and in the data set with Mus musculus [6] was inactive. Moreover, the Time in the data set on Rattus norvegicus amounted to 186.3 s.

On to `CCc1nc2ccccc2c(=O)n1NC(=O)Nc1ccccc1`, for which the values for the Activity in the data set with Mus musculus [1], with Mus musculus [5] and in the data set with Mus musculus [6] were 300 mg/kg, 300 mg/kg and 100 mg/kg, respectively. Besides, in the data set on Mus musculus [2], the inhibition in vivo at 100 mg/kg amounted to 54%. The result with Mus musculus [3] and with Mus musculus [4] was inactive. Besides, the Time in the data set with Rattus norvegicus was determined as 170.1 s.

Turning to `CCOc1ccc(NC(=O)Nn2c(CC)nc3ccccc3c2=O)cc1`, the Activity with Mus musculus [1], in the data set with Mus musculus [6] and in the data set on Mus musculus [7] was 300 mg/kg throughout. Also, the inhibition in vivo at 100 mg/kg in the data set on Mus musculus [2] came out at 50%. Also, the outcome in the data set on Mus musculus [3], in the data set on Mus musculus [4] and with Mus musculus [5] was inactive. Also, in the data set with Rattus norvegicus, the Time was determined as 161.43 s.

Turning to `O=C(Nc1ccccc1)Nn1c(-c2ccccc2)nc2ccccc2c1=O`, the Activity with Mus musculus [1] is 300 mg/kg; with Mus musculus [7] it was “Not Active”. The inhibition in vivo at 100 mg/kg with Mus musculus [2] was found to be 56%. Besides, the outcome in the data set with Mus musculus [3], with Mus musculus [4], in the data set on Mus musculus [5] and in the data set on Mus musculus [6] was inactive. Besides, the Time in the data set on Rattus norvegicus was 186.46 s.

On to `O=C(Nc1ccc(I)cc1)Nn1c(-c2ccccc2)nc2ccccc2c1=O`, for which the Activity with Mus musculus [1] was 300 mg/kg; in the data set on Mus musculus [7], “Not Active”. Further, the inhibition in vivo at 100 mg/kg in the data set on Mus musculus [2] stood at 60%. In addition, the result in the data set with Mus musculus [3] and in the data set on Mus musculus [6] was inactive. For the same compound, the Time in the data set on Rattus norvegicus was found to be 181.15 s.

For the compound `CCc1nc2ccccc2c(=O)n1NC(=O)Nc1ccc(OC)cc1`, the Activity in the data set on Mus musculus [1] came out at 300 mg/kg. For the same compound, the inhibition in vivo at 100 mg/kg in the data set with Mus musculus [2] came out at 48%. Moreover, the result with Mus musculus [3], in the data set on Mus musculus [4], with Mus musculus [5] and in the data set on Mus musculus [6] was inactive. Moreover, the Time in the data set with Rattus norvegicus is reported as 141.17 s.

For `CCc1nc2ccccc2c(=O)n1NC(=O)Nc1ccc(I)cc1`, the Activity entry in the data set with Mus musculus [1] and in the data set on Mus musculus [7] was “Not Active” throughout. The inhibition in vivo at 100 mg/kg in the data set on Mus musculus [2] came to 55%. In addition, the result in the data set on Mus musculus [3], with Mus musculus [4] and in the data set with Mus musculus [6] was inactive. In addition, in the data set with Rattus norvegicus, the Time was 274.4 s.

As to `CCCC(CCC)C(=O)[O-].[Na+]` [VALPROATE SODIUM], the Activity with Mus musculus [1] stood at 100 mg/kg; in the data set on Mus musculus [3] it was 30 mg/kg; in the data set on Mus musculus [4], 300 mg/kg; with Mus musculus [5], 30 mg/kg; in the data set on Mus musculus [6] it was 100 mg/kg; with Mus musculus [7], 300 mg/kg.
